The values below come from patent US20240425463A1, “PROCESS FOR MANUFACTURING A DIPHENYLPHRAZINE DERIVATIVE” (ACTELION PHARMACEUTICALS LTD, priority 2021, published 2024).

Where a name gives a salt, the structure may show the parent alone.

Data set [1] is described as follows: Feasibility pK rat study (LAI potential of aqueous micro-suspensions, IM). Type of data set: in vivo. The conditions noted are these: 50 mg/kg, aqueous micro-suspension 125 mg/mL; for long-acting release profile (yes/no): citrate buffer pH 5, FIG. 9. Here is the method:
For this study, aqueous micro-suspensions of Selexipag, {4-[(5,6-diphenylpyrazin-2-yl)(propan-2-yl)amino]butoxy}acetic acid and calcium; {4-[(5,6-diphenylpyrazin-2-yl)(propan-2-yl)amino]butoxy}acetate were prepared. An overview of the design of the study can be found in Table 1.
Release profiles and mean AUC of the different formulations are depicted in FIG. 9.

The nature of data set [2]: Solubility in water / aqueous media and dissolution rate. The note with it: for solubility: water / aqueous media. It counts as physicochemical.
Data set [3] can be described thus: Physical stability of solid form on storage (7 days, humidity). It counts as physicochemical.
Data set [4] relates to pulmonary arterial hypertension. The note with it: phase III, patients with pulmonary arterial hypertension; cited from earlier work.
A short description of data set [5]: Hygroscopicity (change in mass between 0 and 90% RH). It counts as physicochemical.
The mark [6] stands for this setting: 7 days storage at 25° C./97% RH.
Where [7] appears, read: 7 days storage at 40° C./75% RH.

Turning to `CC(C)N(CCCCOCC(=O)O)c1cnc(-c2ccccc2)c(-c2ccccc2)n1` [Ca-salt of ACT-333679, calcium; {4-[(5,6-diphenylpyrazin-2-yl)(propan-2-yl)amino]butoxy}acetate], in data set [1] (FIG. 9), the “duration of long-acting release profile” value was “up to 336 hours” and the “time until which AUC increases” value was no more than 720 h. The “plasma concentrations compared to both other groups” value in data set [1] (PVP K17 citrate buffer, FIG. 9) is recorded as “significant lower plasma concentrations”. The solubility result in data set [2] (listed as calcium salt of selexipag metabolite) is given as “low solubility in water”. Also, the solubility entry in data set [2] ({4-[(5,6-diphenylpyrazin-2-yl)(propan-2-yl)amino]butoxy}acetate) was “low solubility in aqueous media”.

Take “Calcium; {4-[(5,6-diphenylpyrazin-2-yl)(propan-2-yl)amino]butoxy}acetate [Amorphous Form]”: the “physical stability after storage” value in data set [3] (setting [6]) and in data set [3] (setting [7]) was “physically stable” each time.

Turning to `CC(C)N(CCCCOCC(=O)O)c1cnc(-c2ccccc2)c(-c2ccccc2)n1` [Selexipag metabolite, 2-(4-((5,6-diphenylpyrazin-2-yl)(isopropyl)amino)butoxy)acetic acid], the “long-acting release profile (yes/no)” value in data set [1] is listed as “did not demonstrate a long-acting release profile”. Moreover, in data set [2], the dissolution rate result was “high” and the solubility entry is on record as “high”.

Turning to `CC(C)N(CCCCOCC(=O)NS(C)(=O)=O)c1cnc(-c2ccccc2)c(-c2ccccc2)n1` [Selexipag, 2-{4-[(5,6-diphenylpyrazin-2-yl)(propan-2-yl)amino]butoxy}-N-(methanesulfonyl)acetamide], the “risk of the primary composite end point of death or a complication related to pulmonary arterial hypertension vs placebo” value in data set [4] is recorded as “significantly lower”. Besides, the “long-acting release profile (yes/no)” value in data set [1] is “did not demonstrate a long-acting release profile”. In addition, in data set [2], the dissolution rate result was “high” and the solubility entry is “high”.

Take “calcium; {4-[(5,6-diphenylpyrazin-2-yl)(propan-2-yl)amino]butoxy}acetate [Form 2]”: the “physical stability after storage” value in data set [3] (setting [6]) and in data set [3] (setting [7]) was “physically stable” in each case. Also, in data set [5], the hygroscopicity entry is “slightly hygroscopic”. Also, in data set [5] (between 0 and 90% RH), the “reversible change in mass” value is 2%.
